According to ChEMBL document CHEMBL1201862, “PubChem BioAssay data set” (2004):
The source made the active and inactive calls.

Experiments:
[1] = target: T1, Neuropeptides B/W receptor type 1 (Homo sapiens, UniProt P48145); experiment: Fluorescence-based dose response cell-based high throughput screening assay to identify antagonists of the G-protein coupled receptor 7 (GPR7). [Related pubchem assays: 1952 (Screening assay (GPR7 antagonists).), 1880 (Summary AID.)]; type: functional
T1 sequence (P48145 whole entry): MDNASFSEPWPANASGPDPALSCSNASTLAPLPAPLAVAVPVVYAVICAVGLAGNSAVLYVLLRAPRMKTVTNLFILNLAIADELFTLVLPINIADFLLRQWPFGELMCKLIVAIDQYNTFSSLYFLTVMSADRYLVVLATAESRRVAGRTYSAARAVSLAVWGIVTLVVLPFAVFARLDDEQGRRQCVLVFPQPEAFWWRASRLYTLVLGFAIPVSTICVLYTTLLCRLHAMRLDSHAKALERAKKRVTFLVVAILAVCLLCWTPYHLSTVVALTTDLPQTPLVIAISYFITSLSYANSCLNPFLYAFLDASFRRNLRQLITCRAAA

[2] = target: Melanin-concentrating hormone receptor 1 (Homo sapiens, UniProt Q99705); experiment: Fluorescence-based counterscreen for antagonists of the G-protein coupled receptor 7 (GPR7): cell-based high throughput dose response assay to identify antagonists of the melanin-concentrating hormone receptor 1 (MCHR1).; type: functional
[3] = target: Lysosomal acid glucosylceramidase (Homo sapiens, UniProt P04062); experiment: Dose response cell-based high throughput screening assay to identify enhancers of beta-glucosidase activity. [Related pubchem assays: 784 ]; type: functional
Ion channel NompC = Ion channel NompC (Danio rerio, UniProt Q7T1G6); experiment: Fluorescence counterscreen assay for TRPML3 agonists: dose response cell-based high-throughput screening assay to identify agonists of the transient receptor potential channel N1 (TRPN1). [Related pubchem assays: 1526, 1424, 1448 ]; type: functional
Mucolipin-3 = Mucolipin-3 (Homo sapiens, UniProt Q8TDD5); experiment: Dose response cell-based high-throughput screening assay for agonists of the transient receptor potential channel ML3 (TRPML3). [Related pubchem assays: 1526, 1424, 1448 ]; type: functional
[4] = target: T2, Aryl hydrocarbon receptor (Homo sapiens, UniProt P35869); experiment: Luminescence-based cell-based high throughput dose response assay for activators of the Aryl Hydrocarbon Receptor (AHR). [Related pubchem assays: 2796 (Primary screen (AHR activators in singlicate)), 2845 (Confirmation screen (AHR activators in triplicate)), 434939 (Counterscreen (PXR activators in triplicate)), 2804 (Summary (AHR activators))]; type: ADME
T2 sequence (P35869 whole entry): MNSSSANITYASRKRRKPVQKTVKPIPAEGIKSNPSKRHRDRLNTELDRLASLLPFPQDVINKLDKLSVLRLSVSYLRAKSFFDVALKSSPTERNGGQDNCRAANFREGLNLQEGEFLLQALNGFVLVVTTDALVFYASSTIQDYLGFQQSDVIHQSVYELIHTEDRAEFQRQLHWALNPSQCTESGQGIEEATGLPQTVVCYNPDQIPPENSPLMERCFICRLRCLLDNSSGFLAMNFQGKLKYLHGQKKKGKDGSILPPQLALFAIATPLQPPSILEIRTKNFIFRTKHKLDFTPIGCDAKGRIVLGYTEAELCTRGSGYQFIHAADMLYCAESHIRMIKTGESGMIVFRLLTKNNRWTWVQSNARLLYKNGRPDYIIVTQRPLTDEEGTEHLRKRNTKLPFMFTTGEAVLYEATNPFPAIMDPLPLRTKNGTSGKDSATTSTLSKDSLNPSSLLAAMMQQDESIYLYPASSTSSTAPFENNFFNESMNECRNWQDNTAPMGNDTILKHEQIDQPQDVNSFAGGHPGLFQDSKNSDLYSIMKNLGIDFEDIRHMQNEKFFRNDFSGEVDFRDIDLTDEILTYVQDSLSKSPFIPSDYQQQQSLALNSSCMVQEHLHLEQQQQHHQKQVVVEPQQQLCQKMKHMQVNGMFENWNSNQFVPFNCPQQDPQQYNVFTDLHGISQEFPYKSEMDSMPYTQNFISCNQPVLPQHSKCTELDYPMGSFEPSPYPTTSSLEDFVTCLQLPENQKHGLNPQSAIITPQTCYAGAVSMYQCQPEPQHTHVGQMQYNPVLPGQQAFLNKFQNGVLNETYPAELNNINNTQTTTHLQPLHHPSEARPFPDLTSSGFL

[5] = target: Neuropeptide Y receptor type 2 (Homo sapiens, UniProt P49146); type: functional, cell-based;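 note: HEK293 cells expressing the receptor and a CNG channel; stimulus was NPY near EC95 followed by isoproterenol to raise cAMP; antagonist potency measured as restoring cAMP signal that NPY suppresses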
[6] = target: Neuropeptide Y receptor type 1 (Homo sapiens, UniProt P25929); type: functional;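 note: HEK293 cells with a CNG channel challenged with NPY then isoproterenol; potency as antagonist that reverses NPY suppression of cAMP signal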
[7] = A Cell Based Secondary Assay To Explore Cytotoxicity of Compounds that Sensitize Mycobacterium Tuberculosis to Beta-Lactam Antibiotics.; type: functional
[8] = HPDE-C7 pancreatic duct cell viability loss – fluorescence, HTS (AID 430); type: functional, cell-based; details: Homo sapiens
H9c2 = experiment: cells; type: functional, cell-based; details: Rattus norvegicus, H9c2, Myocardium;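 note: confirmatory concentration-response retest of ultra-high-throughput screening hits for modulation of myocardial damage; cell death induced by hydrogen peroxide oxidative stress; compound pretreatment for 60 min then peroxide exposure for 2 h; potency is for protecting the cells against peroxide damage rather than for killing them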
[9] = viability of PTEN-deleted HCT116 cells – cell-based, HCT116 PTEN knockout, dose response (AID 1047); type: functional;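 note: HCT116 colon tumor cells with PTEN knocked out; cells exposed to compound for 60 hours before readout; potency for loss of cell viability measured by luminescence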
[10] = viability of HCT116 lacking mutant beta-catenin – cell-based, human colon tumor, dose response (AID 1045); type: functional;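 note: HCT116 colon tumor cells with beta catenin knocked out; cells exposed to compound for 60 hours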
[11] = viability loss of HPDE-C7K cells – cell-based, fluorescence, HTS, primary screen (AID 431); type: functional; details: Homo sapiens
[12] = system: Streptococcus sp. 'group A'; experiment: Streptococcus pyogenes SK(-)GAS viability under kanamycin – luminescence, BacTiterGlo, confirmation, counter-screen for streptokinase expression inhibitor project, dose response (AID 1900); type: functional, organism-based
Streptococcus = experiment: GAS UMAA2166 growth inhibition – luminescence, BacTiterGlo, counter-screen for streptokinase expression inhibitor project, dose response (AID 1915); type: functional, organism-based;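 note: potency for reduction of bacterial viability or growth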

Chain of Melanin-concentrating hormone receptor 1 (Q99705 whole entry): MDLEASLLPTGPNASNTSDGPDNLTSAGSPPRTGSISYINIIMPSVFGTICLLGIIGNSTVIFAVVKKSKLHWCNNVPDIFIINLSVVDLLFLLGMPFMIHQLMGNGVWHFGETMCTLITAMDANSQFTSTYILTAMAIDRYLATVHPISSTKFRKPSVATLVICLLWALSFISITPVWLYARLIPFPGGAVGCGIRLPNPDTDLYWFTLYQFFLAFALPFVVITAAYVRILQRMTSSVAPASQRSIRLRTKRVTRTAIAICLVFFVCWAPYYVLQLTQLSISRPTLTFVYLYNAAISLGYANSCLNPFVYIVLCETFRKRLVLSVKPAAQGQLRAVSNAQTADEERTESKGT
Chain of Lysosomal acid glucosylceramidase (P04062 whole entry): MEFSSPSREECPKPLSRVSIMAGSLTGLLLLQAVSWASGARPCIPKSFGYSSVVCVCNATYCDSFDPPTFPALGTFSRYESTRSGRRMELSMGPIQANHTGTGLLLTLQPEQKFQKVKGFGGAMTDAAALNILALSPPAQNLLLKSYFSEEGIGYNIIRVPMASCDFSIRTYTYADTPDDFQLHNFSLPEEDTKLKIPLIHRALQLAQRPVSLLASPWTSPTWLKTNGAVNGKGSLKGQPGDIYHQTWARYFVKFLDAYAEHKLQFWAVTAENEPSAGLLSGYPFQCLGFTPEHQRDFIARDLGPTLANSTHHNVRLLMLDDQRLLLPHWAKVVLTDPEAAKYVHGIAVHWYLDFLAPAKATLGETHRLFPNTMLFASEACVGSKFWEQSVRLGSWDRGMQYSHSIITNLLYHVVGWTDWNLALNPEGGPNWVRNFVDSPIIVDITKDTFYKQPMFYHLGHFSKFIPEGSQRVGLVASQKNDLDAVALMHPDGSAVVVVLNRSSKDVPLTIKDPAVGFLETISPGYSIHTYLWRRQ
Chain of Neuropeptide Y receptor type 1 (P25929 whole entry): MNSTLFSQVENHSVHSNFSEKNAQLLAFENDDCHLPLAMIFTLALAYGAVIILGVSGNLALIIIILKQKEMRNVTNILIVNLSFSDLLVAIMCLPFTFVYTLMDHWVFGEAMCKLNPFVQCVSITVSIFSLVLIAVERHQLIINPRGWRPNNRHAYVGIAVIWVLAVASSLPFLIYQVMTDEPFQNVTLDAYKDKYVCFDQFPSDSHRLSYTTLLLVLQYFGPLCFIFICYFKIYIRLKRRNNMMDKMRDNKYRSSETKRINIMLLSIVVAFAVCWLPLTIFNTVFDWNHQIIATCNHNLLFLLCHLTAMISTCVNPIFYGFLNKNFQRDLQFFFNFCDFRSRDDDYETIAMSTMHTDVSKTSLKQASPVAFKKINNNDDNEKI
Chain of Ion channel NompC (Q7T1G6 whole entry): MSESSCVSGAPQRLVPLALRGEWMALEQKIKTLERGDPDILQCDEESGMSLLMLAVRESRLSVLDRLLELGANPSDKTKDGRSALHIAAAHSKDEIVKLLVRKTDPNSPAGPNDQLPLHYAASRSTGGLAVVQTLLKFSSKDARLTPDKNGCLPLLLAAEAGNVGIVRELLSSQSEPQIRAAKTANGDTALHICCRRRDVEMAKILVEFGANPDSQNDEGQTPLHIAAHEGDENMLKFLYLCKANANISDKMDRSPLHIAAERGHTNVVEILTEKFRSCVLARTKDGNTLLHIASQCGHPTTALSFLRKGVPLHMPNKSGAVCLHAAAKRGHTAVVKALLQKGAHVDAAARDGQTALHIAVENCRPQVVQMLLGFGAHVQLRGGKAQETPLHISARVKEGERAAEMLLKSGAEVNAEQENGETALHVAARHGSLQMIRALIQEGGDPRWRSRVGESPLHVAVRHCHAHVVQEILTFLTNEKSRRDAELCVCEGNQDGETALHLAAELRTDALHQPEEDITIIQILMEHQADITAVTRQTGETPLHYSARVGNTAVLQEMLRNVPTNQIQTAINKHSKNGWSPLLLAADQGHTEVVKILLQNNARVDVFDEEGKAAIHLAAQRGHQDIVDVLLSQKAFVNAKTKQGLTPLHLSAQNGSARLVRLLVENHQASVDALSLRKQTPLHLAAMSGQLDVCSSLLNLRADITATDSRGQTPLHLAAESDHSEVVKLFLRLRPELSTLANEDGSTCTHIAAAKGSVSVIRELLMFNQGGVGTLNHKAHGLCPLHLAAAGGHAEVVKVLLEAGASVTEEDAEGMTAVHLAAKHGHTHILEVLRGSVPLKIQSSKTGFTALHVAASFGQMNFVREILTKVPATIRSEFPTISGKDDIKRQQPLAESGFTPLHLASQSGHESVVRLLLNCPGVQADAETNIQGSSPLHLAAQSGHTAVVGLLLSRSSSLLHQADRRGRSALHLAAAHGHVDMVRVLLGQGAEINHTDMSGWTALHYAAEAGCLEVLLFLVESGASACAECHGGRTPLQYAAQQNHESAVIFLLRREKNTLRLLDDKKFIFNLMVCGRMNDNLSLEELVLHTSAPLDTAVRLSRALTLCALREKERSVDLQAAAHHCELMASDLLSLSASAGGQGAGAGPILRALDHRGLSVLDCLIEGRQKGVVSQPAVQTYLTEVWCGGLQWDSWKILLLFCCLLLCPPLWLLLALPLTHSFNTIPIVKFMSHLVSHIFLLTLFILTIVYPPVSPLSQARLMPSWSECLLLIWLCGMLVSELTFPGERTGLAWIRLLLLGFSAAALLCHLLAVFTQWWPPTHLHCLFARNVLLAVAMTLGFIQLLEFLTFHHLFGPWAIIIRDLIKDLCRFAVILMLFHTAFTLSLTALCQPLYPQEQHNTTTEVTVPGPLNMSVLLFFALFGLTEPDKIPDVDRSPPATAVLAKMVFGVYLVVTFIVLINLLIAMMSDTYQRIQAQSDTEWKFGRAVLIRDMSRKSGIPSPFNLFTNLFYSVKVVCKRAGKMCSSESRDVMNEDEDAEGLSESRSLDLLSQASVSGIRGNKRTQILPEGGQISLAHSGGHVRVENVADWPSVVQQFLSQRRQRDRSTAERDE
Chain of Neuropeptide Y receptor type 2 (P49146 whole entry): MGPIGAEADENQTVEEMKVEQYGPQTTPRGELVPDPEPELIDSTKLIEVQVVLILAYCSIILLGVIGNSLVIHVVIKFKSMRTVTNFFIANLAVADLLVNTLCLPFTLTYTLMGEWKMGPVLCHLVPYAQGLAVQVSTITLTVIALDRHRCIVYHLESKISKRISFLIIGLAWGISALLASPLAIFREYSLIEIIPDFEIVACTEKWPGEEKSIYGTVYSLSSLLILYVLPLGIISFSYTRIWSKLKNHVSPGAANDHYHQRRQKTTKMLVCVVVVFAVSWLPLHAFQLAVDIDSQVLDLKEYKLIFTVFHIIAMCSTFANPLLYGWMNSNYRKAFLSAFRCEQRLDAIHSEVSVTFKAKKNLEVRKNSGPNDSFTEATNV
Chain of Mucolipin-3 (Q8TDD5 whole entry): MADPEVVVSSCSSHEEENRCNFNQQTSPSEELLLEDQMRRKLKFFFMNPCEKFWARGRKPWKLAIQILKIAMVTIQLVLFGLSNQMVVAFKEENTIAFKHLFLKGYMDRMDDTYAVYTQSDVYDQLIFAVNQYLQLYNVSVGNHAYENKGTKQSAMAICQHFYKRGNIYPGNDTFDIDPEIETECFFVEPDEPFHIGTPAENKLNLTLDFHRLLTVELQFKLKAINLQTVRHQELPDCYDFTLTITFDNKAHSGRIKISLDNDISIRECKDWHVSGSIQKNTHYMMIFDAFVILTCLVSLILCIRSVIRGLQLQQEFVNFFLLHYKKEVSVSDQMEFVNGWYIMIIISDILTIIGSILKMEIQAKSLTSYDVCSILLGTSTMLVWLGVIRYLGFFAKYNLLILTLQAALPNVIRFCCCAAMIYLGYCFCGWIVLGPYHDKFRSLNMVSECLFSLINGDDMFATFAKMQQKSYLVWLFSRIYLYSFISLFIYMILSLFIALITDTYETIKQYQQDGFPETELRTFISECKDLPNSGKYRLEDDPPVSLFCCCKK

With `N#Cc1ccc(CSc2nnc(Cc3cccs3)n2Cc2ccco2)cc1` the IC50 [1] was > 43.8 µM (not active) and the IC50 [2] was 23 µM (not active).
For `CCOC(=O)NC(CC(=O)O)c1ccc(OCC)cc1` (stereo not given), the EC50 [3] was > 50 µM (not active).
For `COc1cccc(CN(Cc2ccco2)C(c2ccc(F)cc2)c2nnnn2C(C)(C)C)c1` (stereo not given), the EC50 (Ion channel NompC) was > 29.9 µM (not active) and the EC50 (Mucolipin-3) was > 29.9 µM (not active).
With `Cc1ccc2cc3c(NC(=O)CC(C)C)nn(C)c3nc2c1` the EC50 [4] was 0.476 µM (active).
In the case of `NS(=O)(=O)c1ccc2nc(NC(=O)Nc3ccc(F)cc3)sc2c1`, the IC50 [1] is reported as > 43.8 µM (not active) and the IC50 [2] is reported as > 43.8 µM (not active).
With `COC(=O)c1ccc(CSc2nc3sc4c(c3c(=O)n2C)CCCC4)o1` the IC50 [5] was 6.21 µM (active) and the IC50 [6] was 6.95 µM (active).
For `CCOc1ccccc1CNS(=O)(=O)c1ccc2nc(O)sc2c1`, the EC50 [3] was > 10 µM (not active).
In the case of `CCOC(=O)C1=C(C)N=c2s/c(=C\c3ccncc3)c(=O)n2C1c1ccc2c(c1)OCO2` (stereo not given), the CC50 [7] is reported as > 40 µM (active), the EC50 [8] is reported as 16.3 µM (active) and the IC50 (H9c2) is reported as > 79 µM (inactive). The EC50 [9] was 10.5 µM (active), the EC50 [10] was 10.2 µM (active) and the EC50 [11] was 11 µM (active).
In the case of `COc1ccc(C(=O)/C=C/c2ccc(O)cc2)c(O)c1CC=C(C)C`, the EC50 [12] is reported as 2.71 µM (active), the CC50 [7] is reported as > 40 µM (active) and the EC50 (Streptococcus) is reported as 3.01 µM (active).
